According to patent US5051417A, “Indolythiadiazines for treating heart failure” (Les Laboratoires Beecham S.A., priority 1988, dated 1991):
Where a name gives a salt, the structure may show the parent alone.

Tested on: canine cardiac myofibrillar Ca++-dependent Mg++-ATPase
Test: Measurement of myofibrillar Ca++-dependent Mg++-ATPase activity on canine cardiac myofibrils
Type: biochemical
Details: pH 7.0, 21° C.; for max (percent change of maximal ATPase activity): pCa=5.47
Procedure: 1. Measurement of myofibrillar Ca++-dependent Mq++-ATPase activity The effect on myofibrillar Ca++sensitivity and on maximal activity of myofibrillar Ca++-dependent Mg++-ATPase was determined on canine cardiac myofibrils. (a) Contractile protein preparation Cardiac myofibrils free of membrane contaminants were prepared from left ventricular tissue of dog hearts using a modification of the method described by SOLARO et al, Biochem. Biophys. Acta, 245, 259-262, (1971). Before centrifugation, the heart homogenate was filtered through gauze. After Triton X-100 treatments, the myofibrillar fraction was washed once by resuspension and centrifugation in 10 volumes of 1 mM EGTA, […], 30 mM imidazole, 2 mM MgCl2, pH 7.0. The pellet was then washed three times in 10 volumes of the same buffer without EGTA. Before the last centrifugation, the suspension of myofibrils was filtered through a stainless steel sieve with 0.25 mm meshes. Myofibrils were kept in pellet overnight. Before use, the pellet was suspended in a small amount of buffer, the protein concentration was determined by the method of BRADFORD M., Anal. Biochem., 1976, 72, 248 and adjusted in order to have a concentration between 6 and 7 mg/ml. (b) Myofibrillar ATPase activity Ca++-dependent myfibrillar ATPase activity was determined at 21° C., pH 7.0, by measuring the rate of release of inorganic phosphate. All assays were performed within 24hrs. of final purification, using the method described by SOLARO and […]., 51. 290-4,(1982). Reaction mixtures (4 ml) containing 0.6-0.7 mg/ml myofibrillar protein, 80mM KCl, 20 mM imidazole, 3 mM MgCl2, 1 mM EGTA, the desired amount of CaCl2, and the indicated concentration of drug or appropriate vehicle were preincubated for 6 min. prior to assay. The amount of CaCl2 was varied between 0 and 0.9 mM and the pCa (-log free Ca++) computed using 2.514×10^6 M^-1 as the apparent affinity of Ca++for EGTA at pH 7.0. Reactions were initiated by the addition of Na2 ATP to final concentration of 2 mM. After an incubation period of 12 min., reactions were quenched by the addition of an equal volume of ice-cold 10% trichloroacetic acid. The protein was pelleted by centrifugation (2000 g, 15 min.) and Pi was assayed in the supernatant fraction using a modification of the method described by LANZETTA et al, Anal. Biochem., 100, 95-97, (1979). The following solutions were prepared: (1) 3.7% ammonium heptamolybdate in 0.12 N H2 SO4 (2) 0.074% malachite green oxalate in 1% polyvinylic alcohol. The colour reagent was prepared by mixing an equal volume of solution (1) and (2) 15 min. before the assay. For the assay, 1,700 μl of 1% H2 SO4 and 1 ml of colour reagent were added to 100 μl of sample. Colour development occurred at room temperature for 30 min. and was quenched by the addition of 200 μl of 1M tri-potassium citrate. The absorbance was measured at 620 millimicrons. The effect of each compound, tested at the indicated concentration, on the relation between pCa and percent activation was determined taking 100% for the maximum ATPase activity obrained with vehicle alone. The effect on Ca++sensitivity was quantified by measuring the shift of the pCa giving 50% of the maximal control ATPase activity. The effect on maximal ATPase activity was expressed as the percent change of ATPase activity for pCa=5.47. Mean effects on myofibrillar ATPase activity were obtained from 1 to 5 preparations, (compounds tested at 2×10^-4 M).

COC(=O)NN=C1C(=O)Nc2ccc(C3=NNC(=O)SC3C)cc21 (stereo not shown) [Example 15, Methyl 2-[2,3-dihydro-5-(3,6-dihydro-6-methyl-2-oxo-2H -1,3,4-thiadiazin-5-yl)-2-oxo-1H-indol-3-ylidene]hydrazine carboxylate]
max (percent change of maximal ATPase activity) (30 μM): 2 ± 4%
pCa (shift of the pCa giving 50% of the maximal control ATPase activity; Ca++ sensitivity) (30 μM): +0.08 ± 0.04

CC1SC(=O)NN=C1c1ccc2c(c1)C(=Cc1ccccc1[N+](=O)[O-])C(=O)N2 (stereo not shown) [Example 16, 1,3-Dihydro-5-(3,6-dihydro-6-methyl-2-oxo-2H-1,3,4-thiadiazin-5-yl)-3-(2-nitrophenylmethylene)-2H-indol-2-one]
max (percent change of maximal ATPase activity) (30 μM): 1 ± 4%
pCa (shift of the pCa giving 50% of the maximal control ATPase activity; Ca++ sensitivity) (30 μM): +0.17 ± 0.03

CC1SC(=O)NN=C1c1ccc2c(c1)C(=Cc1cccnc1)C(=O)N2 (stereo not shown) [Example 19, 1,3-Dihydro-5-(3,6-dihydro-6-methyl-2-oxo-2H-1,3,4-thiadiazin-5-yl)-3-(3-pyridylmethylene)-2H-indol-2-one]
max (percent change of maximal ATPase activity) (30 μM): -14 ± 7%
pCa (shift of the pCa giving 50% of the maximal control ATPase activity; Ca++ sensitivity) (30 μM): +0.23 ± 0.06

CC1SC(=O)NN=C1c1ccc2c(c1)C(=Cc1ccccn1)C(=O)N2 (stereo not shown) [Example 20, 1,3-Dihydro-5-(3,6-dihydro-6-methyl-2-oxo-2H-1,3,4-thiadiazin-5-yl)-3-(2-pyridylmethylene)-2H-indol-2-one]
max (percent change of maximal ATPase activity) (30 μM): -13 ± 5%
pCa (shift of the pCa giving 50% of the maximal control ATPase activity; Ca++ sensitivity) (30 μM): +0.19 ± 0.08

Cc1ccc(NN=C2C(=O)Nc3ccc(C4=NNC(=O)SC4C)cc32)cc1 (stereo not shown) [Example 21, 5-(3,6-Dihydro-6-methyl-2-oxo-2H-1,3,4-thiadiazin-5-yl) -1H-indole-2,3-dione 3-[(4-methyl)phenylhydrazone]]
max (percent change of maximal ATPase activity) (10 μM): 41 ± 2%
pCa (shift of the pCa giving 50% of the maximal control ATPase activity; Ca++ sensitivity) (10 μM): 1.07 ± 0.02
max (percent change of maximal ATPase activity) (30 μM): -42 ± 7%
pCa (shift of the pCa giving 50% of the maximal control ATPase activity; Ca++ sensitivity) (30 μM): +1.30 ± 0.00

CC1SC(=O)NN=C1c1ccc2c(c1)C(=NNCc1ccccc1)C(=O)N2 (stereo not shown) [Example 22, 5-(3,6-Dihydro-6-methyl-2-oxo-2H-1,3,4-thiadiazin-5-yl) -1H-indole-2,3-dione 3-[(phenylmethyl)hydrazone]]
max (percent change of maximal ATPase activity) (30 μM): 21 ± 4%
pCa (shift of the pCa giving 50% of the maximal control ATPase activity; Ca++ sensitivity) (30 μM): +0.64 ± 0.1

CCOC(=O)CON=C1C(=O)Nc2ccc(C3=NNC(=O)SC3C)cc21 (stereo not shown) [Example 23, Ethyl[[[2,3-dihydro-5-(3,6-dihydro-6-methyl-2-oxo-2H -1,3,4-thiadiazin-5-yl)-2-oxo-1H-indol-3-ylidene]amino]oxy]lacetate]
max (percent change of maximal ATPase activity) (30 μM): 8 ± 6%
pCa (shift of the pCa giving 50% of the maximal control ATPase activity; Ca++ sensitivity) (30 μM): +0.05 ± 0.02

CC1SC(=O)NN=C1c1ccc2c(c1)C(=NNc1ccc(C(C)(C)C)cc1)C(=O)N2 (stereo not shown) [Example 24, 5-(3,6-Dihydro-6-methyl-2-oxo-2H-1,3,4-thiadiazin-5-yl) -1H-indole-2,3-dione 3-[4-(1,1-dimethylethyl)phenylhydrazone]]
max (percent change of maximal ATPase activity) (30 μM): -2 ± 5%
pCa (shift of the pCa giving 50% of the maximal control ATPase activity; Ca++ sensitivity) (30 μM): +0.49 ± 0.06

CC1SC(=O)NN=C1c1ccc2c(c1)C(=NNC1CCCCC1)C(=O)N2 (stereo not shown) [Example 25, 5-(3,6-Dihydro-6-methyl-2-oxo-2H-1,3,4-thiadiazin-5-yl) -1H-indole-2,3-dione 3-(cyclohexylhydrazone)]
max (percent change of maximal ATPase activity) (30 μM): 22 ± 3%
pCa (shift of the pCa giving 50% of the maximal control ATPase activity; Ca++ sensitivity) (30 μM): +0.49 ± 0.06

CC1SC(=O)NN=C1c1ccc2c(c1)C(=NN(C)c1ccccc1)C(=O)N2 (stereo not shown) [Example 26, 5-(3,6-Dihydro-6-methyl-2-oxo-2H-1,3,4-thiadiazin-5-yl) -1H-indole-2,3-dione 3-(methylphenylhydrazone)]
max (percent change of maximal ATPase activity) (30 μM): 17 ± 2%
pCa (shift of the pCa giving 50% of the maximal control ATPase activity; Ca++ sensitivity) (30 μM): +0.65 ± 0.05

CC1SC(=O)NN=C1c1ccc2c(c1)C(=NNc1ccc(Cl)c(Cl)c1)C(=O)N2 (stereo not shown) [Example 27, 5-(3,6-Dihydro-6-methyl-2-oxo-2H-1,3,4-thiadiazin-5-yl) -1H-indole-2,3-dione 3-(3,4-dichloroohenyl)hydrazone]
max (percent change of maximal ATPase activity) (30 μM): -1 ± 0%
pCa (shift of the pCa giving 50% of the maximal control ATPase activity; Ca++ sensitivity) (30 μM): +0.05 ± 0.03

COc1ccc(NN=C2C(=O)Nc3ccc(C4=NNC(=O)SC4C)cc32)cc1 (stereo not shown) [Example 28, 5-(3,6-Dihydro-6-methyl-2-oxo-2H-1,3,4-thiadiazin-5-yl) -1H-indole-2,3-dione 3-[(4-methoxy)phenylhydrazone]]
max (percent change of maximal ATPase activity) (30 μM): 20 ± 5%
pCa (shift of the pCa giving 50% of the maximal control ATPase activity; Ca++ sensitivity) (30 μM): +0.94 ± 0.05

CC1SC(=O)NN=C1c1ccc2c(c1)C(=NNc1ccc(Cl)cc1)C(=O)N2 (stereo not shown) [Example 29, 5-(3,6-Dihydro-6-methyl-2-oxo-2H-1,3,4-thiadiazin-5-yl) -1H-indole-2,3-dione 3-[(4-chloro)phenylhydrazone]]
max (percent change of maximal ATPase activity) (30 μM): 25 ± 4%
pCa (shift of the pCa giving 50% of the maximal control ATPase activity; Ca++ sensitivity) (30 μM): +0.78 ± 0.1

CC1SC(=O)NN=C1c1ccc2c(c1)C(=NNc1ccc(F)cc1)C(=O)N2 (stereo not shown) [Example 30]
max (percent change of maximal ATPase activity) (30 μM): 28 ± 6%
pCa (shift of the pCa giving 50% of the maximal control ATPase activity; Ca++ sensitivity) (30 μM): +1.01 ± 0.07

CC1SC(=O)NN=C1c1ccc2c(c1)C(=NNc1c(F)c(F)c(F)c(F)c1F)C(=O)N2 (stereo not shown) [Example 32, 5-(3,6-Dihydro-6-methyl-2-oxo-2H-1,3,4-thiadiazin-5-yl) -1H-indole-2,3-dione 3-(pentafluorophenylhydrazone)]
max (percent change of maximal ATPase activity) (30 μM): -1 ± 7%
pCa (shift of the pCa giving 50% of the maximal control ATPase activity; Ca++ sensitivity) (30 μM): +0.10 ± 0.04

CC#N.CC1SC(=O)NN=C1c1ccc2c(c1)C(=NNc1ccc(S(C)(=O)=O)cc1)C(=O)N2 (stereo not shown) [Example 33]
max (percent change of maximal ATPase activity) (30 μM): 3 ± 1%
pCa (shift of the pCa giving 50% of the maximal control ATPase activity; Ca++ sensitivity) (30 μM): +0.37 ± 0.05

CC1SC(=O)NN=C1c1ccc2c(c1)C(=NNc1ccc(C(=O)O)cc1)C(=O)N2 (stereo not shown) [Example 34]
max (percent change of maximal ATPase activity) (30 μM): 5 ± 2%
pCa (shift of the pCa giving 50% of the maximal control ATPase activity; Ca++ sensitivity) (30 μM): +0.40 ± 0.02

CC1SC(=O)NN=C1c1ccc2c(c1)C(=NNc1ccccn1)C(=O)N2.Cl (stereo not shown) [Example 35, 5-(3,6-Dihydro-6-methyl-2-oxo-2H-1,3,4-thiadiazin-5-yl)-1H-indole-2,3-dione 3-(2-pyridylhydrazone) monohydrochloride]
max (percent change of maximal ATPase activity) (30 μM): 0 ± 1%
pCa (shift of the pCa giving 50% of the maximal control ATPase activity; Ca++ sensitivity) (30 μM): +0.05 ± 0.06

CC1SC(=O)NN=C1c1ccc2c(c1)C(=NNc1cccnc1)C(=O)N2 (stereo not shown) [Example 36, 5-(3,6-Dihydro-6-methyl-2-oxo-2H-1,3,4-thiadiazin-5-yl) -1H-indole-2,3-dione 3-(3-pyridylhydrazone)]
max (percent change of maximal ATPase activity) (30 μM): 24 ± 5%
pCa (shift of the pCa giving 50% of the maximal control ATPase activity; Ca++ sensitivity) (30 μM): +0.92 ± 0.06

CC1SC(=O)NN=C1c1ccc2c(c1)C(=NNC(=O)c1ccccn1)C(=O)N2 (stereo not shown) [Example 37]
max (percent change of maximal ATPase activity) (30 μM): -9 ± 1%
pCa (shift of the pCa giving 50% of the maximal control ATPase activity; Ca++ sensitivity) (30 μM): +0.14 ± 0.03

CC1SC(=O)NN=C1c1ccc2c(c1)C(=NNC(=O)c1cccnc1)C(=O)N2 (stereo not shown) [Example 38, 3-Pyridinecarboxylic acid, 2-[2,3-dihydro-5-(3,6-dihydro-6-methyl-2-oxo-2H-1,3,4-thiadiazin-5-yl)-2-oxo-1H-indol-3-ylidenelhydrazide hydrochloride]
max (percent change of maximal ATPase activity) (10 μM): 34 ± 7%
pCa (shift of the pCa giving 50% of the maximal control ATPase activity; Ca++ sensitivity) (10 μM): 1.10 ± 0.02
max (percent change of maximal ATPase activity) (30 μM): 34 ± 5%
pCa (shift of the pCa giving 50% of the maximal control ATPase activity; Ca++ sensitivity) (30 μM): +1.05 ± 0.06
